Measured values taken from patent US20160228575A1, “NARINGENIN COMPLEXES AND METHODS OF USE THEREOF” (THE GENERAL HOSPITAL CORPORATION, priority 2008, published 2016).
Where two headings read alike, the source gives them in different places.

Columns and labels:
ACAT1 = ACAT1 mRNA level by qPCR in infected Huh7.5.1 cells; type: cell-based, human; settings: naringenin 24 hours
ACAT2 = ACAT2 transcription by qPCR in infected Huh7.5.1 cells; type: cell-based, human; settings: naringenin 24 hours, infected Huh-7.5.1 cells
S-180 sarcoma cell line = settings: intraperitoneal or peroral injection once a day for 5 days, mice, cited from earlier work
[1] = rats, intraperitoneal injection; cited from earlier work
PPARα = PPARα transcription in infected Huh7.5.1 cells; type: cell-based, human; settings: short term 24 hours stimulation of Huh7.5.1 cells
Procedure: Virus samples collected in each experiment were filtered with a 0.45 μm filter and a volume of 100 μL for each sample was heated at 95° C. for 45 min. The reverse transcription reaction step was performed on a Mastercycler epgrdientS (Eppendorf) instrument using Omniscript and Sensiscript RT Kits (Qiagen). Real time PCR was performed on a Light Cycler LC-24 (Idaho Technology), using SuperScript™ III Platinum® CellsDirect Two-Step qRT-PCR Kits (Invitrogen) for quantitative PCR. For reverse transcription step, 2 μL of sample without RNA extraction were used. For real time PCR, 1 μL of the reverse transcription reactions was used. All reactions were performed according to the manufacturer's instructions using the primers detailed in Table 1.
PPARα and LXRα are ligand-activated transcription factors which control much of the fasted-to-fed transition and were previously shown to be important in the development of inflammation and insulin resistance. […] Following a short term 24 hours stimulation of Huh7.5.1 cells PPARα transcription increased by 86%, while LXRα was decreased by 25%. PPARα is the target of fibrates and plays a major role in the downregulation of inflammation, increasing sensitivity to insulin, and modulating dyslipidemia.

Caco-2 cell monolayer = test: Transport across Caco-2 cell monolayer (apical to basolateral); type: in vitro ADME; settings: human, Caco-2, 2 h, pH 7.35
Procedure: The Caco-2 cell line is an immortalized line of human epithelial colorectal adenocarcinoma cells, which is widely used by the pharmaceutical industry to predict the absorption rate of candidate drug compounds across the intestinal epithelial cell barrier. Caco-2 cells were grown and allowed to form confluent monolayers on transwell filters for 21 days as previously described^39. In detail, Caco-2, human epithelial colorectal adenocarcinoma cells were cultured in tissue culture flasks (Becton Dickinson and Co., Lincoln Park, N.J.). The growth medium was Dulbecco's modified Eagle's medium supplemented with 10% fetal bovine serum, 1% nonessential amino acids, and 4 mM glutamine without antibiotics. The monolayer cultures were grown in a CO2 incubator (5% CO2) at 37° C. The cells were harvested with 0.25% trypsin and 0.2% EDTA (0.5 to 1 min at 37° C.), resuspended, and seeded into a new flask. Cells between 30 to 53 passages were used.
For the transport studies, Caco-2 cells were seeded on Transwell (0.4-μm pore size, 1-cm^2 growth area; Corning Costar Co.) at a cell density of 1×10^5 cells/filter. Cell growth and maintenance was kept as previously described (98). […] The concentrations of Naringenin or HPbCD-Neringenin were determined as described and plotted as a concentration on the basolateral side vs. time. […]

[2] = system: HCV (JFH-1) infection of naïve Huh7.5.1 cells; test: HCV infectivity of cell culture supernatant on naïve Huh7.5.1 cells; type: cell-based, Hepatitis C virus; settings: Hepatitis C virus, Huh-7.5.1; supernatant after 24 hours stimulation; naringenin 200 μM, brefeldin A 2.5 μg/ml
Procedure: The infectivity of the secreted HCV particles was measured as previously described (8). Naïve Huh7.5.1 cells were grown to 80% confluence and exposed to cell culture supernatants diluted 10-fold in culture media. Following 1 hour incubation at 37° C., the media was replaced, and the cells were cultured for 3 additional days. Levels of HCV infection were determined by immunofluorescence staining for HCV core protein. The viral titer is expressed as focus forming units per milliliter of supernatant (ffu/ml).

[3] = oral; cited from earlier work
[4] = 400 mg/day oral, hypercholesterolemic patients; cited from earlier work
[5] = molecular target: T1, Microsomal triglyceride transfer protein (MTP) (Homo sapiens, UniProt P55157); test: Microsomal triglyceride transfer protein (MTP) activity assay in Huh7.5.1 cell homogenates; type: cell-based; settings: Huh-7.5.1, 24 hours stimulation of Huh7.5.1 cells
T1 construct: The MTP assay was performed by incubating 50 μg cellular protein with 10 μl of donor and acceptor solutions; endogenous in cells; host or cells: Huh7.5.1 human hepatoma cells (sonicated homogenate, 50 µg cellular protein)
Procedure: MTP activity was analyzed using an MTP assay kit as previously described (11). The assay is based on a transfer of a fluorescent signal between donor and acceptor particles due to MTP activity. Briefly, confluent Huh7.5.1 cells stimulated with naringenin or carrier control for 24 hours then washed with ice cold PBS and scraped off the dish using a cell scraper. Samples were homogenized by sonication (3×5 sec) in buffer containing protease inhibitors. The MTP assay was performed by incubating 50 μg cellular protein with 10 μl of donor and acceptor solutions in 250 μl total buffer (15 mM Tris pH 7.4; 40 mM NaCl; 1 mM EDTA). Increase in fluoresecent signal was measured over 12 hours at 37° C. at the excitation wavelength of 465 nm and emission wavelength of 538 nm.

[6] = guinea pigs, intraperitoneal injection; cited from earlier work

T1 sequence (P55157 19-894): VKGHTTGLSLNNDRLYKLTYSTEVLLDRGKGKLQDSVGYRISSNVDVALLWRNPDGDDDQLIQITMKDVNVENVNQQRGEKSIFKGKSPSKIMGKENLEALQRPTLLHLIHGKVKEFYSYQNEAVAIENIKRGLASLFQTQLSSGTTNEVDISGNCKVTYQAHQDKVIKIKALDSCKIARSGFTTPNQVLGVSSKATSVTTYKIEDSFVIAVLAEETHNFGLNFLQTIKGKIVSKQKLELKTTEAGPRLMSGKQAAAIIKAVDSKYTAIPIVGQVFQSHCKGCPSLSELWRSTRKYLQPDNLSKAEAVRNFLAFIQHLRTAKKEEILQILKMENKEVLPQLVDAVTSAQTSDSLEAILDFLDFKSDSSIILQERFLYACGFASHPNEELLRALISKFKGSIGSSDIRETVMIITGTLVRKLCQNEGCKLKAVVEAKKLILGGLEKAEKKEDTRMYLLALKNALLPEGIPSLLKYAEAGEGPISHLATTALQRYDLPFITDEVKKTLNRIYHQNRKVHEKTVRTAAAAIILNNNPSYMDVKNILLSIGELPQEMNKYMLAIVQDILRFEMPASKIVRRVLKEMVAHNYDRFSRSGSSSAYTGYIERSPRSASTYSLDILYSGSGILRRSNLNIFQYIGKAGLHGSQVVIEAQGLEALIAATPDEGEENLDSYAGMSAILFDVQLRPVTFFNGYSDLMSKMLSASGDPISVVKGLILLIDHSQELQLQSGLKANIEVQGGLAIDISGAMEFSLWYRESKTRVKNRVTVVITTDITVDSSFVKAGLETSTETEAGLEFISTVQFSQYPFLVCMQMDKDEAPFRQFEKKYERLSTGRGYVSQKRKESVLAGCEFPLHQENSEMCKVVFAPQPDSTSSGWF
T1 sequence (P07237 18-508 partner): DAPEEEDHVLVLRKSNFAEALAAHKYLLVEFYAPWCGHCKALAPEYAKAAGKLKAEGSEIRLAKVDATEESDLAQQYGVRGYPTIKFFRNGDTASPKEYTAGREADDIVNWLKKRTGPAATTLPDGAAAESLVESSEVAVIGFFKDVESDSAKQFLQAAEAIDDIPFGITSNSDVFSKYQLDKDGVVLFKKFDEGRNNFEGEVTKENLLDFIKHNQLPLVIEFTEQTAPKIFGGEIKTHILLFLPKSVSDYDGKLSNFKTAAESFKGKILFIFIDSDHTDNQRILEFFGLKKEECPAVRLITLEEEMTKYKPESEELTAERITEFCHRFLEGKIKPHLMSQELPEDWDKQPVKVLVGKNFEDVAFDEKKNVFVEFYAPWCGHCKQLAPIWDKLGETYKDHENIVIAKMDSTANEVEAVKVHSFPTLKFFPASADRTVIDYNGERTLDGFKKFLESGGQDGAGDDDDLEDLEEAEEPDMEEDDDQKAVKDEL

SMILES: O=C1C[C@@H](c2ccc(O)cc2)Oc2cc(O)cc(O)c21 [naringenin]
- ACAT1 mRNA level (ACAT1): remained unchanged
- reduction of ACAT2 transcription (ACAT2): 55%±7%
- tumor growth of S-180 sarcoma (S-180 sarcoma cell line): significantly inhibit
- tumor growth of S-180 sarcoma (S-180 sarcoma cell line; listed as Naringenin): significantly inhibits
- LD50 (50% kill) [1]: 2000 mg/kg
- increase of PPARα transcription (PPARα): 86%
- maximal naringenin concentration in basal chamber (Caco-2 cell monolayer): 0.05 mM
- inhibition at 200 µM [2]: 79%
- absorbance through the intestinal wall (intestinal absorption) [3]: about 6%
- lowering of LDL levels [4]: 17%
- inhibition at 200 µM [5]: 58%
- LD50 (50% kill) [6]: 2000 mg/kg
